Assay results published in patent US5929039A, “Method for treating cardiac dysfunction and pharmaceutical compositions useful therefor” (Baker Medical Research Institute, priority 1993, dated 1999).
Read-outs that look alike come from different tables or passages of the source.

Tests used:
[1] = test system: inositol phosphate accumulation in heart tissue; experiment: Inositol phosphate accumulation in healthy (normoxic) heart tissue; parameters: species or system rat
Protocol: (§1) Adult male sprague dawley rats 250-300 g were used. Where indicated, rats were treated with reserpine (5 mg/kg I.P. for 18 hrs prior to killing) to deplete endogenous noradrenaline stores.. Rats were heparinized 1 U/g I.P. 30 minutes prior to killing by decapitation. Hearts were rapidly excised and immediately chilled in ice-cold saline. Under ice-cold solution, hearts were cannulated via the ascending aorta as described by Langendorff and perfused retrogradely at a rate of 5 ml/min with HEPES-buffered Krebs solution equilibrated with 5%CO2 -95%O2 at 37° C. Initial perfusion was in a non-recirculating manner to remove internal blood. Hearts were allowed to warm up gradually and, when free of internal blood, transferred to a 37° C. water-jacketed organ bath containing carbogenated Krebs medium, and perfusion continued in a recirculating manner. Following a 15 minute equilibration period, hearts were labelled with [^3 H]-inositol, 2 μCi/ml for 2 h. Hearts were monitored throughout the labelling period for strong rhythmic beating.
(§2) Inositol phosphates were extracted from ventricle samples in 3.5 ml ice-cold 5% trichloroacetic acid (TCA), 2.5 mM EDTA, 5 mM phytate solution, as described previously (21). Briefly, ventricles were homogenised with two 10 second passes of a "Polytron" homogenizer separated by 15 second periods on ice. Samples were homogenised further using a Potter-Elvejheim homogeniser followed by brief sonication. Homogenised samples were centrifuged (5000 rpm, 10 min, 4° C.) to remove TCA insoluble material. Supernatants were collected, and the remaining pellet re-extracted in 1.5 ml TCA, EDTA, phytate. Supernatants were pooled and freon, tri-n-ocylamine (1:1 v/v 0.75 ml:1 ml TCA solution) was added, mixed thoroughly, and phases separated by low speed centrifugation (2000 rpm, 10 min 4° C.). The resultant aqueous phase, containing inositol phosphates was collected and treated with proteinase K (50 μg/ml, 2 hr, 50° C.). This process was necessary to preserve the chromatography column. Treated samples were passed through a 1 ml Dowex-50 column (4% cross-linked 4-400 mesh size) and eluted with 1 ml water (22). Urea (0.05 M final) was added (23) and samples lyophilized prior to high performance liquid chromatography (HPLC) analysis. Recovery of inositol phosphates using this method was greater than 95% for each isomer, as estimated by addition of [^3 H]-labelled standards to extractions of unlabelled hearts.
Inositol phosphates were separated by an anion-exchange HPLC system using a Whatman Partisil 10μ SAX column in a Waters Radial Compression Unit, employing a complex ammonium phosphate gradient, pH 3.8 from 0-2 M as described previously (24). Inositol phosphates were detected and quantitated using an on-line […] (model CR, Radiomatic Instruments) All peaks were identified by comparison with commercial standards. Nucleotide standards AMP, ADP, and ATP were run with samples to assess column performance.

[2] = test system: isolated neonatal cardiomyocytes; experiment: Inositol phosphate accumulation in isolated neonatal cardiomyocytes; type: cell-based
[3] = test system: in situ perfused rat hearts; settings: for Reperfusion-induced arrhythmias VF % incidence / Reperfusion-induced arrhythmias VT % incidence: control 83; for arrhythmias occurring during the ischaemic phase: at the higher concentrations
Protocol: (§3) A model of in situ perfused rat hearts subjected to 20 minutes coronary artery occlusion to induce ischaemia, followed by reperfusion was used to investigate reperfusion-induced arrhythmias.
(§4) Rats (250-300 g) were anaesthetised (pentobarbitone 60 mg/kg, I.P.) and heparinised (200 U/rat I.V.) The thorax was then opened and a metal cannula (ID 1 mm) inserted and tied into the ascending aorta, to commence Langendorff perfusion in situ (31). The interval from opening the chest to commencing heart perfusion was between 50 and 70 seconds. The perfusate was Krebs buffer, with coronary flow controlled by a Ismatac peristaltic pump at a rate of 5 ml/g heart weight/min for the non-ischaemic perfusion. At this flow rate the coronary perfusion pressure was between 32-38 mmHg, measured by pressure transducer (Gould Statham model p23) connected to the sidearm of the perfusion line. Following aortic cancellation, pulmonary vessels were tied off. In some preparations, ventricular pressure was measured by inserting a Millar micro-tip transducer catheter into the left ventricular cavity via the apex. All parameters--coronary perfusion pressure, ventricular pressure, and epicardial ECG, were constantly recorded on a Grass model 7 polygraph. Two hearts were perfused and simultaneously studied.
(§5) A silk suture (4.0) was positioned loosely around the left coronary artery 2-3 mm from its origin. Two silk releasing rings were placed around the suture for subsequent release of occlusion. Successful occlusion of the artery, inducing regional ischaemia, was indicated by increases in coronary perfusion pressure of at least 30%. Perfusion pressure was adjusted to non-ischaemic perfusion levels during the ischaemic period.
(§6) Drugs were added to the perfusion via a Harvard Model 22 pump. The drug flow was less than 1% of perfusion flow to ensure constant perfusate parameters. Unless mentioned otherwise, the drugs were present 10 minutes before, and during the entire ischaemic and reperfusion periods.
(§7) Heart preparations were allowed to stabilise for at least 20 minutes prior to commencing studies. Following 10 minute drug incubation, the left coronary artery was ligated to induce local ischaemia, for a period of 20 minutes. At the end of this ischaemic period, the ligature was released and hearts perfused at pre-ischaemic flow for a period of 5 minutes. Ventricular arrhythmias, occurring during ischaemia or during the first 2 minutes of reperfusion were defined according to the Lambeth Conventions (32).
Incidence of arrhythmias was analysed using a .chi.^2 test, with n≥8 for each group.

Ins(1,4,5)P3 release [4] = experiment: Ins(1,4,5)P3 mass in isolated perfused rat hearts, 2 min reperfusion after 20 min global ischaemia (competitive binding assay); settings: for Ins(1,4,5)P3 mass: 2 min reperfusion after 20 min global ischaemia, control 200 ± 18
Protocol: as §1
(§8) Following labelling, the [^3 H]-inositol-containing medium was removed, and replaced with Krebs medium containing propranolol (10^-6 M) and lithium chloride (50 mM) to block β-adrenergic receptors and to inhibit InsP metabolism by InsP 1'-phosphatase respectively (20). Hearts were perfused with propranolol, LiCi solution for 10 minutes prior to ischaemia. Antagonists, when administered, were included in this 10 minute preincubation. Normothermic global ischaemia was induced by terminating perfusion for various times up to 30 minutes. Reperfusion was examined following a 20 minute ischaemic period by resuming perfusion at 5 ml/min. Reactions were terminated by freezing hearts in liquid N2 following excision at the atrioventricular junction. Frozen ventricles were weighed and inositol phosphates extracted as described below.
as §2
Mass of Ins(1,4,5)P3 was measured using a competitive binding assay (Amersham TRK 1000) essentially as described previously (26). Ventricle samples were prepared as described above except for the omission of [^3 H]-label during the 2 hr perfusion of hearts prior to ischaemia, and for the use of 5 mm ATP instead of phytate in the extraction procedure.
Protein concentration was determined in aliquots of TCA pellet following InsP extraction using a modified Lowry method with Bovine Serum Albumin as a standard.
Values presented are mean ±SEM, for n=4 unless otherwise stated. Statistical analysis of results involved Students' unpaired "t-test" for all InsP data.

PI-PLC heart rep = experiment: Inhibition of PI-PLC in hearts under reperfusion conditions; parameters: species or system rat
Protocol: as §1, §8
Mass of Ins(1,4,5)P3 was measured using a competitive binding assay (Amersham TRK 1000) essentially as described previously (26). […]

PI-PLC kidney cy = settings: cytosolic enzyme; from the literature (35); cited from earlier work
PI-PLC kidney me = settings: membrane enzyme; from the literature (35); cited from earlier work
PC-PLD brain = settings: read-out: average EC50 PC-PLD brain; from the literature (35); cited from earlier work
[5] = test system: hearts from reserpinized rats; experiment: Arrhythmic effect of thrombin under reperfusion conditions, perfused hearts from reserpinized rats; parameters: species or system rat; settings: reserpinized hearts
Protocol: as §3, §4, §5, §6, §7
The finding that thrombin directly stimulated release of Ins(1,4,5)P3 in heart indicates the possibility that thrombin might cause arrhythmias directly via this mechanism. Experiments were performed using hearts from reserpinized rats so that arrhythmic events initiated by noradrenaline were eliminated. Reperfusion arrhythmias were not observed in hearts from reserpinized animals. […] Furthermore, these arrhythmias were inhibited by gentamicin, indicating a relationship to release of Ins(1,4,5)P3 (Table 2).

rats = test system: rats
Protocol: Rats were not heparinised so that effects of thrombin will be contributory to observed arrhythmias.
Rats were anaesthetised with pentobarbitone (60 mg/Kg IP) and artificially ventilated with room air. The chests were opened via the forth intercostal space, and the heart exposed. A 4.0 suture was placed around the left coronary artery and then passed through a guided polyethylene cannula. The thorax was closed leaving the threaded cannula outside the chest. The right carotid artery was cannulated for recording of arterial blood pressure. After stabilisation for 20-30 minutes, the left coronary artery was ligated by pulling the ends of the ligature through the tube and securing them by clamping the tube together with the threads. The ischaemic period was 10 minutes followed by reperfusion. Arterial blood pressure and a lead II ECG was recorded 3 minutes before and during ischaemia, and for the first 5 minutes of reperfusion. […] The size of the ischaemic area was determined at the end of the experiment by the dye method. […] Gentamicin was infused at a dose of 2.5-10 mg/Kg/min prior to initiation of ischaemia and maintained throughout the protocol.

Ins(1,4,5)P3 release [6] = experiment: Thrombin-stimulated release of Ins(1,4,5)P3 in heart tissue; settings: at concentrations similar to those inhibiting the noradrenaline response under reperfusion

Compound	potency of inhibition of reperfusion-induced Ins(1,4,5)P3 release relative to neomycin (Ins(1,4,5)P3 release [4])	Ins(1,4,5)P3 mass (Ins(1,4,5)P3 release [4]; 0.015 mM)	Ins(1,4,5)P3 mass (Ins(1,4,5)P3 release [4]; 0.15 mM)	Ins(1,4,5)P3 mass (Ins(1,4,5)P3 release [4]; 1.5 mM)	effect on reperfusion arrhythmias [3]	Reperfusion-induced arrhythmias VF % incidence ([3]; 0.015 mM)	Reperfusion-induced arrhythmias VT % incidence ([3]; 0.015 mM)	Reperfusion-induced arrhythmias VF % incidence ([3]; 0.15 mM)	Reperfusion-induced arrhythmias VT % incidence ([3]; 0.15 mM)	Reperfusion-induced arrhythmias VF % incidence ([3]; 1.5 mM)	Reperfusion-induced arrhythmias VT % incidence ([3]; 1.5 mM)	arrhythmias occurring during the ischaemic phase [3]	EC50 (PI-PLC heart rep)	EC50 (PI-PLC kidney cy)	EC50 (PI-PLC kidney me)	other results
COc1ccc2c(c1)CC[C@@H]1[C@@H]2CC[C@]2(C)[C@@H](NCCCCCCN3C(=O)C=CC3=O)CC[C@@H]12 [U-73122]																release of Ins(1,4,5)P3 in intact heart preparations [1]: did not inhibit; inhibition of accumulation of inositol phosphates ([1]; heart tissue under noradrenaline stimulation): did not inhibit; inhibition of accumulation of inositol phosphates [2]: fully effective inhibitor; anti-arrhythmic activity [3]: without anti-arrhythmic activity; VF% ([3]; 10^-6 M, n 12, control 63): 61%; VT% ([3]; 10^-6 M, n 12, control 100): 88%
[H]/N=C(/N)N[C@H]1[C@H](O)[C@@H](O)[C@H](O[C@@H]2O[C@@H](C)[C@](O)(C=O)[C@H]2O[C@@H]2O[C@@H](CO)[C@H](O)[C@@H](O)[C@@H]2NC)[C@@H](N/C(N)=N\[H])[C@@H]1O [streptomycin]	more potent inhibitors	201 ± 16 pmol/mg protein	167 ± 5 pmol/mg protein	94 ± 11 pmol/mg protein	inhibited	27%	45%	6%	25%	27%	45%	partial inhibition	150 µM	380 µM	2850 µM	EC50 (PC-PLD brain): 125 µM
gentamicin	more potent inhibitors	145 ± 2 pmol/mg protein	136 ± 22 pmol/mg protein	102 ± 17 pmol/mg protein	inhibited	25%	58%	27%	27%	8%	17%	partial inhibition	15 µM	130 µM	500 µM	rank of potency against reperfusion arrhythmias [3]: most potent agent tested; thrombin-induced reperfusion arrhythmias [5]: inhibited; size of ischaemic area vs control animals (rats; dye method, 2.5-10 mg/Kg/min): no difference; arrhythmias occurring under ischaemic conditions in vivo (rats; infused 2.5-10 mg/Kg/min): effective; development of reperfusion arrhythmias in vivo (rats; infused 2.5-10 mg/Kg/min): inhibited; VF% reperfusion arrhythmias in vivo (rats; infused 2.5-10 mg/Kg/min, 10 min occlusion then reperfusion, n 10, control 68): 0%; VT% reperfusion arrhythmias in vivo (rats; infused 2.5-10 mg/Kg/min, 10 min occlusion then reperfusion, n 10, control 100): 30%; inhibition of thrombin-stimulated release of Ins(1,4,5)P3 (Ins(1,4,5)P3 release [6]): inhibited
